Values quoted from earlier work, collected in article PMC6413085, “A Validated HPLC-MS/MS Assay for 14-O-[(4,6-Diaminopyrimidine-2-yl)thioacetyl] Mutilin in Biological Samples and Its Pharmacokinetic, Distribution and Excretion via Urine and Feces in Rats” (Molecules, 2019).
Read-outs that look alike come from different tables or passages of the source.

Tests used:
[1] = rat, in vivo, cited from earlier work; for time at which Cmax was achieved: 5 mg/kg
[2] = rabbit, in vivo, iv, 25 mg/kg; cited from earlier work
[3] = in vivo; cited from earlier work

| Structure (SMILES) | time at which Cmax was achieved ([1]; iv) [h] | time at which Cmax was achieved ([1]; po) [h] | absolute bioavailability following oral administration ([1]; po) [%] | time at which Cmax was achieved [2] [h] | absolute bioavailability following oral administration [3] [%] |
| --- | --- | --- | --- | --- | --- |
| C=C[C@]1(C)C[C@@H](OC(=O)CSc2nnc(N)s2)[C@]2(C)[C@H](C)CC[C@]3(CCC(=O)[C@H]32)[C@@H](C)[C@@H]1O [14-O-[(2-amino-1,3,4-thiadiazole-5-yl)thioacetyl] mutilin] | 0.08 | 0.75 | 35.81 | – | – |
| C=CC1(C)CC(OC(=O)CSc2nc(N)cc(O)n2)C2(C)C(C)CCC3(CCC(=O)C32)C(C)C1O (stereo not drawn) [14-O-[(4-amino-6-hydroxy-pyrimidine-2-yl)thioacetyl] mutilin] | – | – | – | 0.08 | – |
| C=C[C@]1(C)C[C@@H](OC(=O)CSC(C)(C)CNC(=O)[C@H](N)C(C)C)[C@]2(C)[C@H](C)CC[C@]3(CCC(=O)[C@H]32)[C@@H](C)[C@@H]1O [valnemulin] | – | – | 100 | – | 36.68 |
